IC50 data for 12 compounds are collected here from US20250179083A1, “TRICYCLIC TRIAZOLO COMPOUNDS AS DGK INHIBITORS” (Incyte Corporation, priority 2023, published 2025).

As usually defined, the IC50 is the concentration at which inhibition is half-maximal.

One assay has as its target T1, DGKα (Homo sapiens, UniProt P23743).
T1 construct: His; purchased Signal Chem D21-10BH
The assay can be described thus: In vitro DGKα inhibition assay (ADP-Glo). Type of assay: biochemical. As to conditions: His-tagged human recombinant DGKα 0.1 nM, 50 μM ATP, 20 μM DLG, 90 minute incubation. The method, boiled down:
(§1)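 His-tagged human DGKα (0.1 nM, 50 μM ATP) or DGKζ (0.4 nM, 30 μM ATP), each with 20 μM DLG lipid substrate, in Tris pH 7.5 buffer with Mg2+, Ca2+, CHAPS.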

For another assay, the target named is T2, DGKζ (Homo sapiens, UniProt Q13574).
T2 construct: His; purchased Signal Chem D30-10H
Nature of the assay: In vitro DGKζ inhibition assay (ADP-Glo). Format: biochemical. As to conditions: His-tagged human recombinant DGKζ 0.4 nM, 30 μM ATP, 20 μM DLG, 90 minute incubation. The method, boiled down: as §1
(ADP-Glo first removes unused ATP, then detects ADP through luciferase.)

T2 sequence (Q13574 whole entry): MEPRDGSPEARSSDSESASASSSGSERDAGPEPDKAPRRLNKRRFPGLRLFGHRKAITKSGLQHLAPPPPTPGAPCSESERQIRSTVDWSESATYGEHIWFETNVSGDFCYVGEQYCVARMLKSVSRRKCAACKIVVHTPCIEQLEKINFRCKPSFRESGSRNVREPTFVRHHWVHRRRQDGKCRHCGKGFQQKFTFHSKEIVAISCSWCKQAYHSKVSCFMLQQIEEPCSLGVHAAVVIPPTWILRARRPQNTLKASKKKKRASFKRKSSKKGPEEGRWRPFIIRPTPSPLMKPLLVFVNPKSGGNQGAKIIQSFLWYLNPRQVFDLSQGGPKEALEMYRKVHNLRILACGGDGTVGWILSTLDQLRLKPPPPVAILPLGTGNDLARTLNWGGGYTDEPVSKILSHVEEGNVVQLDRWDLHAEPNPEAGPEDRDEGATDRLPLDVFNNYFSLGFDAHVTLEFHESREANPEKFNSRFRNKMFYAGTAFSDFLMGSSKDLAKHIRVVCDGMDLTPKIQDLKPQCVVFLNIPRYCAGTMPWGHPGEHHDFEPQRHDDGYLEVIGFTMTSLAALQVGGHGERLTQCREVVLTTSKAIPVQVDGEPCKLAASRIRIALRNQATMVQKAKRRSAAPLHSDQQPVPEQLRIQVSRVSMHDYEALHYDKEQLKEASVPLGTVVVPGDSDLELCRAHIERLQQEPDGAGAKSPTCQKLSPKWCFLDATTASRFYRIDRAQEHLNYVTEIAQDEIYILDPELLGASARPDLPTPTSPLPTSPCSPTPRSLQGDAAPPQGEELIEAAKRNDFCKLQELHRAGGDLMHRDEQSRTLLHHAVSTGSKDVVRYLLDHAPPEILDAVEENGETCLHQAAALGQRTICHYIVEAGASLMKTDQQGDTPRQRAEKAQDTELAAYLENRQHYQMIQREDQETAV
T1 sequence (P23743 whole entry): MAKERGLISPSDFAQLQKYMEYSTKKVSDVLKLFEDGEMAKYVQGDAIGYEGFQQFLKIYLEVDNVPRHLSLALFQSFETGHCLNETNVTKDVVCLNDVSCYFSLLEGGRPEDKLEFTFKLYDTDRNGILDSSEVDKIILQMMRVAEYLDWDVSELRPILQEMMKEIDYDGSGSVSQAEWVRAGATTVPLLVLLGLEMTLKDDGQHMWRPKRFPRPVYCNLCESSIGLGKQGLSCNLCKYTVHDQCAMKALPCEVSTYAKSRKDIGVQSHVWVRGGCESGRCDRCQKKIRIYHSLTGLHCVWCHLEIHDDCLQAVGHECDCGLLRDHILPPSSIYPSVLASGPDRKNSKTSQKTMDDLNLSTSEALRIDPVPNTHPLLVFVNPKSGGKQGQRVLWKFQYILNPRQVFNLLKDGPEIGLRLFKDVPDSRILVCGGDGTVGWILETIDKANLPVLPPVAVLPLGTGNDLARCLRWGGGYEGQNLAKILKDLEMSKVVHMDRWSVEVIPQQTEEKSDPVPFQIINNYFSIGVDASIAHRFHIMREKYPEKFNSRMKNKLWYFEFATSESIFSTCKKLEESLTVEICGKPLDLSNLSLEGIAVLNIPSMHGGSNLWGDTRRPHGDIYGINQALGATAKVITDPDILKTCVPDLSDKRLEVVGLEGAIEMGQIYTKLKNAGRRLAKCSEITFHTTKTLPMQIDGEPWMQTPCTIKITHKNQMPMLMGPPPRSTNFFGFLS

In the case of `Cc1nc2c(N3C[C@@H](C)N(Cc4ccc(Cl)cc4)C[C@@H]3C)nc3nncn3c2n1C[C@@H]1CCCO1` [Example 70, 4-((2S,5R)-4-(4-Chlorobenzyl)-2,5-dimethylpiperazin-1-yl)-2-methyl-1-(((S)-tetrahydrofuran-2-yl)methyl)-1H-[1,2,4]triazolo[3,4-b]purine], the IC50 on DGKα and at DGKζ was under 20 nM in each case.
As for `Cc1nc2c(N3C[C@@H](C)N(Cc4cc(F)c(Cl)c(C(F)(F)F)c4)C[C@@H]3C)nc3nncn3c2n1C[C@@H]1CCCO1` [Example 74, 4-((2S,5R)-4-(4-Chloro-3-fluoro-5-(trifluoromethyl)benzyl)-2,5-dimethylpiperazin-1-y1)-2-methyl-1-(((S)-tetrahydrofuran-2-yl)methyl)-1H-[1,2,4]triazolo[3,4-b]purine], the 50% inhibitory concentration (IC50) at DGKα and on DGKζ was under 20 nM in each case.
Consider `Cc1nc2c(N3C[C@@H](C)N(Cc4ccc(C(F)(F)F)cc4F)C[C@@H]3C)nc3nncn3c2n1C[C@@H]1CCCO1` [Example 37, 4-((2S,5R)-4-(2-Fluoro-4-(trifluoromethyl)benzyl)-2,5-dimethylpiperazin-1-yl)-2-methyl-1-(((S)-tetrahydrofuran-2-yl)methyl)-1H-[1,2,4]triazolo[3,4-b]purine], for which the IC50 at DGKα and on DGKζ was under 20 nM throughout.
On to `C[C@@H]1CN(c2nc3nncn3c3c2ncn3C[C@@H]2CCCO2)[C@@H](C)CN1C(C[C@@H](C)C(F)(F)F)c1ccc(Cl)c(F)c1` (single isomer, unassigned) [Example 16], for which the IC50 at DGKα and at DGKζ was under 20 nM in each case.
On to `C[C@@H]1CN(c2cc3nncn3c3c2ncn3C[C@@H]2CCCO2)[C@@H](C)CN1C(c1ccc(F)cc1)c1ccc(F)cc1` [Example 43, 4-((2S,5R)-4-(Bis(4-fluorophenyl)methyl)-2,5-dimethylpiperazin-1-yl)-1-(((S)-tetrahydrofuran-2-yl)methyl)-1H-imidazo[4,5-e][1,2,4]triazolo[4,3-a]pyridine], for which the IC50 at DGKα and at DGKζ was under 20 nM throughout.
In the case of `C[C@@H]1CN(c2nc3nncn3c3c2ncn3C[C@@H]2CCCO2)[C@@H](C)CN1Cc1ccc(Cl)cc1F` [Example 48, 4-((2S,5R)-4-(4-Chloro-2-fluorobenzyl)-2,5-dimethylpiperazin-1-yl)-1-(((S)-tetrahydrofuran-2-yl)methyl)-1H-[1,2,4]triazolo[3,4-b]purine], the half-inhibitory concentration (IC50) on DGKα and at DGKζ was under 20 nM each time.
As for `Cc1nc2c(N3C[C@@H](C)N(Cc4ccc(C(F)(F)F)cc4F)C[C@@H]3C)cc3nncn3c2n1C[C@@H]1CCCO1` [Example 69, 4-((2S,5R)-4-(2-Fluoro-4-(trifluoromethyl)benzyl)-2,5-dimethylpiperazin-1-yl)-2-methyl-1-(((S)-tetrahydrofuran-2-yl)methyl)-1H-imidazo[4,5-e][1,2,4]triazolo[4,3-a]pyridine], the half-maximal inhibitory concentration (IC50) at DGKα and at DGKζ was under 20 nM in each case.
As for `Cc1nc2c(N3C[C@@H](C)N([C@@H](c4ccc(Cl)cc4F)C(C)C)C[C@@H]3C)nc3nncn3c2n1C[C@@H]1CCCO1` [Example 29, 4-((2S,5R)-4-((R)-1-(4-chloro-2-fluorophenyl)-2-methylpropyl)-2,5-dimethylpiperazin-1-yl)-2-methyl-1-(((S)-tetrahydrofuran-2-yl)methyl)-1H-[1,2,4]triazolo[3,4-b]purine], the IC50 on DGKα and at DGKζ was under 20 nM throughout.
Turning to `C[C@@H]1CN(c2nc3nncn3c3c2ncn3C[C@@H]2CCCO2)[C@@H](C)CN1Cc1ccc(Cl)cc1` [Example 47, 4-((2S,5R)-4-(4-Chlorobenzyl)-2,5-dimethylpiperazin-1-yl)-1-(((S)-tetrahydrofuran-2-yl)methyl)-1H-[1,2,4]triazolo[3,4-b]purine], the IC50 on DGKα and on DGKζ was under 20 nM in each case.
Consider `C[C@@H]1CN(c2nc3nncn3c3c2ncn3C[C@@H]2CCCO2)[C@@H](C)CN1C(c1ccc(Cl)cc1)C1CC1` (stereo partly drawn) [Example 10, 4-((2S,5R)-4-((4-Chlorophenyl)(cyclopropyl)methyl)-2,5-dimethylpiperazin-1-yl)-1-(((S)-tetrahydrofuran-2-yl)methyl)-1H-[1,2,4]triazolo[3,4-b]purine], for which the concentration for half-maximal inhibition (IC50) at DGKα and at DGKζ was under 20 nM each time.
For the compound `Cc1nc2c(N3C[C@@H](C)N([C@H](c4ccc(Cl)cc4)C(C)C)C[C@@H]3C)cc3nncn3c2n1C[C@@H]1CCCO1` [Example 65, 4-((2S,5R)-4-((S)-1-(4-Chlorophenyl)-2-methylpropyl)-2,5-dimethylpiperazin-1-yl)-2-methyl-1-(((S)-tetrahydrofuran-2-yl)methyl)-1H-imidazo[4,5-e][1,2,4]triazolo[4,3-a]pyridine], the 50% inhibitory concentration (IC50) on DGKα and on DGKζ was under 20 nM in each case.
On to `Cc1nc2c(N3C[C@@H](C)N(Cc4ccc(C(F)(F)F)cc4)C[C@@H]3C)nc3nncn3c2n1C[C@@H]1CCCO1` [Example 39, 4-((2S,5R)-2,5-Dimethyl-4-(4-(trifluoromethyl)benzyl)piperazin-1-yl)-2-methyl-1-(((S)-tetrahydrofuran-2-yl)methyl)-1H-[1,2,4]triazolo[3,4-b]purine], for which the concentration for half-maximal inhibition (IC50) on DGKα and on DGKζ was under 20 nM each time.
